According to publication PMC7554340, “A Novel Dual-Targeted α-Helical Peptide With Potent Antifungal Activity Against Fluconazole-Resistant Candida albicans Clinical Isolates” (Frontiers in Microbiology, 2020):
Converted amounts (≈) assume the structure as drawn. Where two headings read alike, the source gives them in different places. No end group written: not given here.

Assays:
[1] = test system: C. albicans 14936; test: microbe, parasite or virus in culture; details: Candida albicans, 14936, 48 h
[2] = test system: C. albicans sp3903; test: microbe, parasite or virus in culture; details: Candida albicans, SP3903, 48 h
[3] = test system: C. parapsilosis cgmcc 2.3989; test: Antifungal activity assay (broth microdilution, MIC/MFC); assay type: cell-based, Candida parapsilosis
[4] = test system: C. albicans 17546; test: microbe, parasite or virus in culture; details: Candida albicans, 17546, 48 h
[5] = test system: C. albicans sp3902; test: microbe, parasite or virus in culture; details: Candida albicans, SP3902, 48 h
[6] = test system: C. tropicalis cgmcc 2.1975; test: Antifungal activity assay (broth microdilution, MIC/MFC); assay type: cell-based, Candida tropicalis
[7] = test system: C. albicans 58288; test: microbe, parasite or virus in culture; details: Candida albicans, 58288, 48 h
[8] = test system: C. albicans cgmcc 2.2086; assay type: cell-based, Candida albicans
[9] = test system: C. albicans sp3876; test: microbe, parasite or virus in culture; details: Candida albicans, SP3876, 48 h
[10] = test system: C. albicans 56452; test: microbe, parasite or virus in culture; details: Candida albicans, 56452, 48 h
[11] = test system: C. albicans sp3931; test: microbe, parasite or virus in culture; details: Candida albicans, SP3931, 48 h
[12] = test system: C. albicans cgmcc 2.2086; test: Antifungal activity assay (broth microdilution, MIC/MFC); assay type: cell-based, Candida albicans
[13] = test system: C. albicans 56214; test: microbe, parasite or virus in culture; details: Candida albicans, 56214, 48 h
[14] = test system: C. albicans cgmcc 2.2086; test: Membrane potential assay, DiSC3(5); assay type: cell-based, Candida albicans; details: 0.5 × MIC
From the text: The alteration of membrane potential in peptide-treated C. albicans was detected using the membrane potential-sensitive fluorescent probe, 3,3′-dipropylthiadicarbocyanine iodide [DiSC3(5)] (Sigma-Aldrich, Shanghai, China), as previously described ([Qi et al., 2010]). In brief, C. albicans cells in mid-logarithmic growth-phase were harvested and suspended to an OD600 of 0.05 with 5-mM 4-(2-hydroxyethyl)-1-piperazineethanesulfonic acid buffer (pH 7.4, containing 20-mM glucose). After the addition of 0.4-μM DiSC3(5), samples were incubated for 90 min in the dark to obtain a stable reduction in fluorescence, and then, potassium chloride (4 M) was added to the cell suspension to give a final concentration of 100 mM. Subsequently, 2 ml of cell suspension was added to a 1-cm quartz cuvette and mixed with peptides at different concentrations. The changes in fluorescence were recorded for 900 s with an F-4500 fluorescence spectrophotometer (Hitachi, Japan) at excitation and emission wavelengths of 622 and 670 nm, respectively.

[15] = test system: C. albicans sp3931; details: sp3931, 48 h; for MIC: pH 7
[16] = test system: C. albicans sp3903; details: sp3903, 48 h; for MIC: pH 7
[17] = test system: C. albicans sp3902; details: sp3902, 48 h; for MIC: pH 7
[18] = test system: C. albicans 56452; details: 56452, 48 h; for MIC: pH 7
[19] = test system: C. albicans 17546; details: 17546, 48 h; for MIC: pH 7
[20] = test system: C. albicans sp3876; details: sp3876, 48 h; for MIC: pH 7
[21] = test system: C. albicans 56214; details: 56214, 48 h; for MIC: pH 7
[22] = test system: C. albicans strains; test: Geometric mean of MIC values against all tested C. albicans; assay type: cell-based, Candida albicans
[23] = test system: C. albicans 58288; details: 58288, 48 h; for MIC: pH 7
[24] = test system: C. albicans 14936; details: 14936, 48 h; for MIC: pH 7
[25] = test system: IPEC-J2 and PMEC cells; test: Cytotoxicity MTT assay, statements for both cell lines; details: 24 h, 1-64 μM
[26] = test system: IPEC-J2 cells
[27] = test system: human erythrocytes; test: Hemolysis assay; details: minimal hemolytic concentration inducing 10% hemolysis of human erythrocytes; 1 h, 37°C, hemoglobin at 570 nm; probit regression; three independent experiments
[28] = test system: Candida strains; details: 48 h
[29] = test system: PMEC cells
[30] = test system: human erythrocytes
[31] = test system: IPEC-J2 and PMEC cells
[32] = 50 μl of MIC wells plated on YPD agar, 28°C, 48 h, lowest concentration that completely killed fungal cells, consensus of at least three independent experiments

## OC(Cn1cncn1)(Cn1cncn1)c1ccc(F)cc1F [FLU, fluconazole]
[1]
  MFC: > 256 µM
[1]; pH 7
  MIC: 32 µM (≈ 9.8 µg/mL)
[2]
  MFC: 64 µM (≈ 19.6 µg/mL)
[2]; pH 7
  MIC: 16 µM (≈ 4.9 µg/mL)
[3]; Lodderomyces parapsilosis, CGMCC2, 50 μl of MIC wells plated on YPD agar, 28°C, 48 h, lowest concentration that completely killed fungal cells, consensus of at least three independent experiments
  MFC: 8 µM (≈ 2.45 µg/mL)
[3]; Lodderomyces parapsilosis, CGMCC2, broth microdilution, RPMI-MOPS pH 7.0, 28°C, 48 h, lowest concentration inhibiting 99% of growth (A492)
  MIC: 4 µM (≈ 1.23 µg/mL)
[4]
  MFC: > 256 µM
[4]; pH 7
  MIC: > 256 µM
[5]
  MFC: > 256 µM
[5]; pH 7
  MIC: 16 µM (≈ 4.9 µg/mL)
[6]; Candida tropicalis, CGMCC2, 50 μl of MIC wells plated on YPD agar, 28°C, 48 h, lowest concentration that completely killed fungal cells, consensus of at least three independent experiments
  MFC: 32 µM (≈ 9.8 µg/mL)
[6]; Candida tropicalis, CGMCC2, broth microdilution, RPMI-MOPS pH 7.0, 28°C, 48 h, lowest concentration inhibiting 99% of growth (A492)
  MIC: 4 µM (≈ 1.23 µg/mL)
[7]
  MFC: > 256 µM
[7]; pH 7
  MIC: 8 µM (≈ 2.45 µg/mL)
[8]
  change of MIC after serial passage: eightfold
[9]
  MFC: > 256 µM
[9]; pH 7
  MIC: > 256 µM
[10]
  MFC: > 256 µM
[10]; pH 7
  MIC: > 256 µM
[11]
  MFC: 64 µM (≈ 19.6 µg/mL)
[11]; pH 7
  MIC: 1 µM (≈ 0.306 µg/mL)
[12]; Candida albicans, CGMCC2, 50 μl of MIC wells plated on YPD agar, 28°C, 48 h, lowest concentration that completely killed fungal cells, consensus of at least three independent experiments
  MFC: 4 µM (≈ 1.23 µg/mL)
[12]; Candida albicans, CGMCC2, broth microdilution, RPMI-MOPS pH 7.0, 28°C, 48 h, lowest concentration inhibiting 99% of growth (A492)
  MIC: 2 µM (≈ 0.613 µg/mL)
[13]
  MFC: > 256 µM
[13]; pH 7
  MIC: > 256 µM

## CC[C@H](C)[C@H](NC(=O)CN)C(=O)NCC(=O)N[C@@H](C)C(=O)N[C@H](C(=O)N[C@@H](CC(C)C)C(=O)N[C@@H](CCCCN)C(=O)N[C@H](C(=O)N[C@@H](CC(C)C)C(=O)N[C@H](C(=O)N[C@H](C(=O)NCC(=O)N[C@@H](CC(C)C)C(=O)N1CCC[C@H]1C(=O)N[C@@H](C)C(=O)N[C@@H](CC(C)C)C(=O)N[C@H](C(=O)N[C@@H](CO)C(=O)N[C@@H](Cc1c[nH]c2ccccc12)C(=O)N[C@H](C(=O)N[C@@H](CCCCN)C(=O)N[C@@H](CCCNC(=N)N)C(=O)N[C@@H](CCCCN)C(=O)N[C@@H](CCCNC(=N)N)C(=O)N[C@@H](CCC(N)=O)C(=O)N[C@@H](CCC(N)=O)C(N)=O)[C@@H](C)CC)[C@@H](C)CC)[C@@H](C)O)[C@@H](C)O)C(C)C)C(C)C [Melittin, reference compound]
[14]
  cytoplasmic membrane depolarization, melittin against RF3 (in words): stronger membrane depolarization
[15]
  MFC: 8 µM (≈ 22.8 µg/mL)
  MIC: 8 µM (≈ 22.8 µg/mL)
[16]
  MFC: 4 µM (≈ 11.4 µg/mL)
  MIC: 4 µM (≈ 11.4 µg/mL)
[3]; cgmcc 2.3989, 48 h
  MFC: 2 µM (≈ 5.69 µg/mL)
[3]; cgmcc 2.3989, 48 h, pH 7
  MIC: 2 µM (≈ 5.69 µg/mL)
[6]; cgmcc 2.1975, 48 h
  MFC: 8 µM (≈ 22.8 µg/mL)
[6]; cgmcc 2.1975, 48 h, pH 7
  MIC: 4 µM (≈ 11.4 µg/mL)
[17]
  MFC: 2 µM (≈ 5.69 µg/mL)
  MIC: 2 µM (≈ 5.69 µg/mL)
[18]
  MFC: 8 µM (≈ 22.8 µg/mL)
  MIC: 8 µM (≈ 22.8 µg/mL)
[19]
  MFC: 8 µM (≈ 22.8 µg/mL)
  MIC: 8 µM (≈ 22.8 µg/mL)
[20]
  MFC: 4 µM (≈ 11.4 µg/mL)
  MIC: 4 µM (≈ 11.4 µg/mL)
[21]
  MFC: 4 µM (≈ 11.4 µg/mL)
  MIC: 4 µM (≈ 11.4 µg/mL)
[22]
  GM: 4.59 µM
[12]; cgmcc 2.2086, 48 h
  MFC: 8 µM (≈ 22.8 µg/mL)
[12]; cgmcc 2.2086, 48 h, pH 7
  MIC: 4 µM (≈ 11.4 µg/mL)
[23]
  MFC: 4 µM (≈ 11.4 µg/mL)
  MIC: 4 µM (≈ 11.4 µg/mL)
[24]
  MFC: 8 µM (≈ 22.8 µg/mL)
  MIC: 4 µM (≈ 11.4 µg/mL)

## KIGKVLLVKGIKKIGKVL-NH2 [KV3]
[25]
  cytotoxic effects (in words): negligible cytotoxic effects
[15]
  MFC: 64 µM
  MIC: 64 µM
[26]; IPEC-J2 cells, MTT, 24 h treatment, 1-64 μM, probit regression
  IC50: > 64 µM
[16]
  MFC: 64 µM
  MIC: 64 µM
[3]; cgmcc 2.3989, 48 h
  MFC: 32 µM
[3]; cgmcc 2.3989, 48 h, pH 7
  MIC: 32 µM
[27]
  HC10: >64 µM
[6]; cgmcc 2.1975, 48 h
  MFC: 16 µM
[6]; cgmcc 2.1975, 48 h, pH 7
  MIC: 16 µM
[17]
  MFC: 64 µM
  MIC: 64 µM
[18]
  MFC: 64 µM
  MIC: 32 µM
[28]
  MIC values on Candida strains (range): 16 to 64 µM
[19]
  MFC: 64 µM
  MIC: 64 µM
[20]
  MFC: 32 µM
  MIC: 16 µM
[21]
  MFC: 32 µM
  MIC: 32 µM
[29]; PMEC cells, MTT, 24 h treatment, 1-64 μM, probit regression
  IC50: > 64 µM
[12]; cgmcc 2.2086, 48 h
  MFC: 32 µM
[12]; cgmcc 2.2086, 48 h, pH 7
  MIC: 32 µM
[23]
  MFC: 64 µM
  MIC: 64 µM
[24]
  MFC: >64 µM
  MIC: >64 µM

## RIGRFLLFRGIRRIGRFL-NH2 [RF3]
[15]
  MFC: 8 µM
  MIC: 8 µM
[26]; 24 h
  IC50: 59.8 µM
[16]
  MFC: 8 µM
  MIC: 8 µM
[3]; [32]
  MFC: 16 µM
[3]; cgmcc 2.3989, 48 h, pH 7
  MIC: 16 µM
[6]; [32]
  MFC: 8 µM
[6]; cgmcc 2.1975, 48 h, pH 7
  MIC: 8 µM
[17]
  MFC: 8 µM
  MIC: 8 µM
[18]
  MFC: 8 µM
  MIC: 8 µM
[30]
  HC10: > 64 µM
[31]
  cytotoxicity at 64 μM (in words): sharp rise in cytotoxicity
[19]
  MFC: 16 µM
  MIC: 8 µM
[20]
  MFC: 4 µM
  MIC: 4 µM
[21]
  MFC: 8 µM
  MIC: 4 µM
[29]; 24 h
  IC50: 54 µM
[12]; [32]
  MFC: 8 µM
[12]; cgmcc 2.2086, 48 h, pH 7
  MIC: 8 µM
[23]
  MFC: 8 µM
  MIC: 8 µM
[24]
  MFC: 8 µM
  MIC: 8 µM
